Measured values: patent US6632829B2, “Sulfonamides and derivatives thereof that modulate the activity of endothelin” (Texas Biotechnology Corp., priority 1996, dated 2003)

Columns and labels:
[1] = target: T1, human ETB receptor (Homo sapiens, UniProt P24530); assay: Endothelin binding inhibition, Binding Test #2: competition with 125I-ET-1 for ETB receptors on transfected COS7 cell membranes; conditions: incubation at 24° C. (values marked †)
T1 construct: expressed in transfected cells; host or cells: COS7 cells
T1 sequence (P24530 27-442): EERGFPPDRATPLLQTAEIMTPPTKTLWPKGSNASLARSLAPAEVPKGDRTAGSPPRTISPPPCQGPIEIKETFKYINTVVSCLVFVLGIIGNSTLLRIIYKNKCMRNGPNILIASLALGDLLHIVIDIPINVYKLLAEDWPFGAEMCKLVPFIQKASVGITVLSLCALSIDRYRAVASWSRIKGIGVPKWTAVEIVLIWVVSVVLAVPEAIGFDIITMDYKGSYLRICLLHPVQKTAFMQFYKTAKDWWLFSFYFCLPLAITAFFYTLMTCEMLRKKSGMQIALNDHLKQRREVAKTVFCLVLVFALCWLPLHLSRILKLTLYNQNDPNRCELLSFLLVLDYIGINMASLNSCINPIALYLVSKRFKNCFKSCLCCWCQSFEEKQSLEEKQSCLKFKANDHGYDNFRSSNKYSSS
Summary of the method: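 Membranes from COS7 cells transfected with human ETB receptor, prepared in HEPES pH 7.4 with aprotinin, MnCl2/DNase treatment at 37° C for 30 min. Test compounds compete with 125I-labeled ET-1 for receptor binding; membrane used at 1 μg/50 μL binding buffer.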

[2] = target: T2, human ETA receptors (Homo sapiens, UniProt P25101); assay: Endothelin binding inhibition, Binding Test #1: competition with 125I-ET-1 for ETA receptors on TE 671 cell membranes; conditions: incubation at 24° C. (values marked †)
T2 construct: endogenous in cells; host or cells: TE 671 cells (ATCC HTB 139), membrane preparation
T2 sequence (P25101 21-427): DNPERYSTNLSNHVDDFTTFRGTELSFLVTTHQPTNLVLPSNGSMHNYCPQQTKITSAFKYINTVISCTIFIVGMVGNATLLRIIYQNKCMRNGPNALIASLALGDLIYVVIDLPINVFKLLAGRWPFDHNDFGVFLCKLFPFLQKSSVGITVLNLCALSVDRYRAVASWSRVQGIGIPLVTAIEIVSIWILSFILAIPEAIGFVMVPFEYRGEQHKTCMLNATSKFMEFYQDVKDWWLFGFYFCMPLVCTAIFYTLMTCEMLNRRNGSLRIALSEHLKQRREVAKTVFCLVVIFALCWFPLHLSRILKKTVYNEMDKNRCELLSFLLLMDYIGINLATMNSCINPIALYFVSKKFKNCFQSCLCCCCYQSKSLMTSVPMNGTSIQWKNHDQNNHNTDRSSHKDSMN

SMILES | IC50 [1] [nM] | IC50 [2] [nM]
Cc1noc(NS(=O)(=O)c2ccsc2C(=O)Nc2cc3c(cc2OCCO)OCO3)c1Cl [N-(4-chloro-3-methyl-5-isoxazolyl)-2-[3,4-(methylenedioxy)-6-(2-hydroxyethoxy)phenylaminocarbonyl]thiophene-3-sulfonamide] | ~18000 | ~10
Cc1noc(NS(=O)(=O)c2ccsc2C(=O)Nc2cc3c(cc2CCO)OCO3)c1Cl [N-(4-chloro-3-methyl-5-isoxazolyl)-2-[3,4-(methylenedioxy)-6-(2-hydroxyethyl)phenylaminocarbonyl]thiophene-3-sulfonamide] | 16800 | 5.6
Cc1noc(NS(=O)(=O)c2ccsc2C(=O)Nc2ccc3c(c2)OCO3)c1Cl [N-(4-chloro-3-methyl-5-isoxazolyl)-2-[3,4-(methylenedioxy)]phenylaminocarbonyl-3-thiophenesulfonamide] | 9200 | 7.3
Cc1noc(NS(=O)(=O)c2ccsc2C(=O)OCc2ccc3c(c2)OCO3)c1Cl [N-(4-chloro-3-methyl-5-isoxazolyl)-2-[3,4-(methylenedioxy)benzyloxycarbonyl]thiophene-3-sulfonamide] | 12000 | 420
Cc1noc(NS(=O)(=O)c2ccsc2C(=O)Oc2ccc3c(c2)OCO3)c1Cl [N-(4-chloro-3-methyl-5-isoxazolyl)-2-[3,4-(methylenedioxy)phenoxycarbonyl]thiophene-3-sulfonamide] | 7400 | 6.5
Cc1noc(NS(=O)(=O)c2c(-c3ccc4c(c3)OCO4)sc3ccccc23)c1Cl [N-(4-chloro-3-methyl-5-isoxazolyl)-2-[3,4-(methylenedioxy)phenyl]benzo[b]thiophene-3-sulfonamide] | 52600 | 550
Cc1noc(NS(=O)(=O)c2ccsc2C(=O)Cc2ccc3c(c2)OCO3)c1Cl [N-(4-chloro-3-methyl-5-isoxazolyl)-2-[3,4-(methylenedioxy)phenylacetyl]thiophene-3-sulfonamide] | 6500 | 21

Results, then the compound that gave them:

IC50 [1] [nM] | IC50 [2] [nM] | SMILES
140 | 27 | COc1ccc(NC(=O)c2sccc2S(=O)(=O)Nc2onc(C)c2Cl)c(C)c1 [N-(4-chloro-3-methyl-5-isoxazolyl)-2-[4-methoxy-2-methylphenyl)aminocarbonyl]thiophene-3-sulfonamide]
30200 | 77.6 | Cc1cc(C)c(OC(=O)c2sccc2S(=O)(=O)Nc2onc(C)c2Cl)c(C)c1 [N-(4-chloro-3-methyl-5-isoxazolyl)-2-[(2,4,6-trimethylphenoxy)carbonyl]thiophene-3-sulfonamide]
63100 | 158 | COc1ccc(NC(=O)c2sccc2S(=O)(=O)Nc2onc(C)c2Cl)c(OC)c1 [N-(4-chloro-3-methyl-5-isoxazolyl)-2-[(2,4-dimethoxyphenyl)aminocarbonyl]thiophene-3-sulfonamide]
68500 | 648 | Cc1ccc(OC(=O)c2sccc2S(=O)(=O)Nc2onc(C)c2Cl)c(C)c1 [N-(4-chloro-3-methyl-5-isoxazolyl)-2-[(2,4-dimethylphenoxy)carbonyl]thiophene-3-sulfonamide]
936 ± 95 | 11 ± 5 | Cc1noc(NS(=O)(=O)c2c(Cc3ccc4c(c3)OCO4)sc3ccccc23)c1Cl [N-(4-chloro-3-methyl-5-isoxazolyl)-2-[(3,4-methylenedioxy)benzyl]benzo[b]thiophene-3-sulfonamide]
60000 | 1400 | Cc1noc(NS(=O)(=O)c2ccsc2C(=O)Oc2cccc(N(C)C)c2)c1Cl [N-(4-chloro-3-methyl-5-isoxazolyl)-2-[(3-dimethylamino)phenoxycarbonyl]thiophene-3-sulfonamide]
43700 | 23 | Cc1ccc(NC(=O)c2sccc2S(=O)(=O)Nc2onc(C)c2Cl)nc1 [N-(4-chloro-3-methyl-5-isoxazolyl)-2-[(3-methyl-6-pyridyl)aminocarbonyl]thiophene-3-sulfonamide]
